Measurements taken from US7951832B2, “Pyrazole derivatives as kinase inhibitors” (Burnham Institute for Medical Research, priority 2007, dated 2011).

Assays:
PI3 K P110α = PI3 K P110α (Homo sapiens, UniProt P42336); assay: Inhibition of PI3K (P110α); assay type: biochemical; details: values printed without % sign, read as IC50, read-out: PI3 K (% at 25 μM, or IC50), P110α
mTOR = mTOR (Homo sapiens, UniProt P42345); assay: Inhibition of mTOR; assay type: biochemical; details: for inhibition at 50 µM: read-out: mTOR (Inhibition % at 50 μM, or IC50)

Sequence of PI3 K P110α (P42336 whole entry): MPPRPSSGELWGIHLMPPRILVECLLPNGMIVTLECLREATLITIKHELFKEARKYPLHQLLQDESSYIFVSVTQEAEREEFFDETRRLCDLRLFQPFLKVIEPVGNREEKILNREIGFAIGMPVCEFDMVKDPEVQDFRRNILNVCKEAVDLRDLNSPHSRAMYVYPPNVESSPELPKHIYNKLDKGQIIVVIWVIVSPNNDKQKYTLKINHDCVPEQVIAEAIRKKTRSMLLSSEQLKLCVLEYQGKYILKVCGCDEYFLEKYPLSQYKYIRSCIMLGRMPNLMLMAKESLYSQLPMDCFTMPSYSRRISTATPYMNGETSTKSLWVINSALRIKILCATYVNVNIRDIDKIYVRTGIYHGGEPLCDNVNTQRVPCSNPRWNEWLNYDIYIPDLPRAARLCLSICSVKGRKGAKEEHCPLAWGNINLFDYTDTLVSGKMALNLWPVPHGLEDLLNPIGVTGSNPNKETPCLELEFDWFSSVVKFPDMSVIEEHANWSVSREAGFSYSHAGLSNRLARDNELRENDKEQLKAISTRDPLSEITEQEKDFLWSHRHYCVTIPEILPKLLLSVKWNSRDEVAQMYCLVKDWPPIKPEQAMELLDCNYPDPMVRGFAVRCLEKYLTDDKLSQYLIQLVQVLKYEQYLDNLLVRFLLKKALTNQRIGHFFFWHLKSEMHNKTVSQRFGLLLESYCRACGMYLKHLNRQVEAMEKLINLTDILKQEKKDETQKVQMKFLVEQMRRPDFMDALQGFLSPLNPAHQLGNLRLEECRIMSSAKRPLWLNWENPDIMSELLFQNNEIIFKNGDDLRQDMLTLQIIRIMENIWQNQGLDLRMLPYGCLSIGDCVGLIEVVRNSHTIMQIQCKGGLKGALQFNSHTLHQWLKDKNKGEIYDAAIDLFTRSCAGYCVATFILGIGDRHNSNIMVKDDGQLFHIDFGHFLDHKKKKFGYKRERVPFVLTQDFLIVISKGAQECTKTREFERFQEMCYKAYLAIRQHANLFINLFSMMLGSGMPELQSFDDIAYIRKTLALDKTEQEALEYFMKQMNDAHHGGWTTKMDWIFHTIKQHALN
Sequence of PI3 K P110α (P27986 whole entry partner): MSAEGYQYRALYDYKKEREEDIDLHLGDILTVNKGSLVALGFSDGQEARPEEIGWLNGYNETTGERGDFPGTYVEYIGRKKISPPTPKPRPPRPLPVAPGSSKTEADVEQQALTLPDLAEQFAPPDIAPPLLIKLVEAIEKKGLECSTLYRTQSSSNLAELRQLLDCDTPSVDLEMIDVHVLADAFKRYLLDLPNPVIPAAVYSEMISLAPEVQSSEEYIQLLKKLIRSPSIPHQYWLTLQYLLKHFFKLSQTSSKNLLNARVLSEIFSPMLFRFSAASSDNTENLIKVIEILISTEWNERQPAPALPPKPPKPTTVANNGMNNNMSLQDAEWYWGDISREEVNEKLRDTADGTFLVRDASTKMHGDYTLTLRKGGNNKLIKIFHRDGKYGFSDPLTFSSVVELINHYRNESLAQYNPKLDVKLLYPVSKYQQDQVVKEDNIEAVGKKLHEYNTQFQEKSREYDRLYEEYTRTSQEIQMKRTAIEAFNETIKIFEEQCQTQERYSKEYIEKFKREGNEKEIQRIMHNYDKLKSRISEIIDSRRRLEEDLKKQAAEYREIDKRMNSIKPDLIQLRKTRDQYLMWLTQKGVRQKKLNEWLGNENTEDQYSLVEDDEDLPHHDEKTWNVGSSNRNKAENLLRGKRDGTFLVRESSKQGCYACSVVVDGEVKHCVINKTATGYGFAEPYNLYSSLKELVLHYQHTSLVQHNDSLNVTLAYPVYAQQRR

SMILES: COc1ccc(C(NC(=O)c2ccc3c(C#Cc4cncn4C)n[nH]c3c2)c2ccncc2)cc1 (stereo not shown)
- IC50 (PI3 K P110α): 82 nM

SMILES: O=[N+]([O-])c1ccc2c(C#Cc3ccccc3)n[nH]c2c1
- inhibition at 50 µM (mTOR): -1%

SMILES: Cn1cncc1C#Cc1n[nH]c2cc(C(=O)NCc3cccs3)ccc12
- inhibition at 50 µM (mTOR): -14%

SMILES: O=C(O)c1ccc(C#Cc2n[nH]c3ccccc23)cc1
- IC50 (mTOR): 31000 nM

SMILES: C(#Cc1n[nH]c2ccccc12)c1ccccc1
- inhibition at 50 µM (mTOR): 6%

SMILES: Nc1cccc(C#Cc2n[nH]c3ccccc23)c1
- inhibition at 50 µM (mTOR): 9%

SMILES: Cn1cncc1C#Cc1n[nH]c2cc(C(=O)NC(c3ccncc3)c3ccc(Cl)cc3)ccc12 (stereo not shown)
- inhibition at 50 µM (mTOR): -27%

SMILES: COC(=O)c1ccc2c(C#Cc3cncn3C)n[nH]c2c1
- inhibition at 50 µM (mTOR): 4%

SMILES: C(#Cc1n[nH]c2ccccc12)c1ccsc1
- inhibition at 50 µM (mTOR): 7%

SMILES: N#Cc1ccc(C#Cc2n[nH]c3ccccc23)cc1
- inhibition at 50 µM (mTOR): 1%

SMILES: Cn1cncc1C#Cc1n[nH]c2cc(C(=O)NC34CC5CC(CC(C5)C3)C4)ccc12
- inhibition at 50 µM (mTOR): -11%

SMILES: CC(C)(C)OC(=O)NCCCCCNC(=O)c1ccc(C#Cc2n[nH]c3ccccc23)cc1
- inhibition at 50 µM (mTOR): -6%

SMILES: C(#Cc1n[nH]c2ncccc12)c1ccccn1
- inhibition at 50 µM (mTOR): 7%

SMILES: C(#Cc1n[nH]c2ccccc12)c1ccccn1
- inhibition at 50 µM (mTOR): 13%

SMILES: Cn1cncc1C#Cc1n[nH]c2ccccc12
- IC50 (mTOR): > 100000 nM
- inhibition at 50 µM (mTOR): 46%
- IC50 (PI3 K P110α): 62 nM

SMILES: Cn1cncc1C#Cc1n[nH]c2cc(C(=O)O)ccc12
- inhibition at 50 µM (mTOR): 24%

SMILES: Cn1cncc1C#Cc1n[nH]c2cc(C(=O)NCc3ccccn3)ccc12
- inhibition at 50 µM (mTOR): -17%

SMILES: C(#CC1CC1)c1n[nH]c2ccccc12
- inhibition at 50 µM (mTOR): 2%

SMILES: C(#CC1CCCC1)c1n[nH]c2ccccc12
- inhibition at 50 µM (mTOR): 3%

SMILES: Cc1ccc2[nH]c(C(C)NC(=O)c3ccc4c(C#Cc5cncn5C)n[nH]c4c3)nc2c1 (stereo not shown)
- inhibition at 50 µM (mTOR): -7%

SMILES: C(#Cc1n[nH]c2ccccc12)c1cccnc1
- inhibition at 50 µM (mTOR): 34%

SMILES: Cn1cncc1C#Cc1n[nH]c2cc(C(=O)NCc3cc4ccccc4[nH]3)ccc12
- inhibition at 50 µM (mTOR): 3%

SMILES: COc1ccc2cc(C#Cc3n[nH]c4ccccc34)ccc2c1
- inhibition at 50 µM (mTOR): 5%

SMILES: NCCCCCNC(=O)c1ccc(C#Cc2n[nH]c3ccccc23)cc1
- inhibition at 50 µM (mTOR): 3%

SMILES: Nc1ccc(C#Cc2n[nH]c3ccccc23)cc1
- inhibition at 50 µM (mTOR): 9%
- IC50 (PI3 K P110α): 83 nM

SMILES: FC(F)(F)c1cc(C#Cc2n[nH]c3ccccc23)cc(C(F)(F)F)c1
- inhibition at 50 µM (mTOR): -3%

SMILES: C(#Cc1n[nH]c2ncccc12)c1ccncc1
- inhibition at 50 µM (mTOR): 15%

SMILES: C(#Cc1n[nH]c2ccccc12)c1ccncc1
- inhibition at 50 µM (mTOR): 30%

SMILES: Fc1cc(F)cc(C#Cc2n[nH]c3ccccc23)c1
- inhibition at 50 µM (mTOR): 6%

SMILES: Cn1cncc1C#Cc1n[nH]c2cc(C(=O)NCc3ccco3)ccc12
- inhibition at 50 µM (mTOR): -5%

SMILES: COc1ccc(C#Cc2n[nH]c3ccccc23)cc1
- inhibition at 50 µM (mTOR): 5%
